The first assay has as its target T1, Recombinant human cathepsin A (Homo sapiens, UniProt P10619).
T1 construct: Recombinant human cathepsin A (residues 29-480, with a C-terminal 10-His tag); 10-His (C); purchased R&D Systems 1049-SE
T1 sequence (P10619 29-312 limits assumed): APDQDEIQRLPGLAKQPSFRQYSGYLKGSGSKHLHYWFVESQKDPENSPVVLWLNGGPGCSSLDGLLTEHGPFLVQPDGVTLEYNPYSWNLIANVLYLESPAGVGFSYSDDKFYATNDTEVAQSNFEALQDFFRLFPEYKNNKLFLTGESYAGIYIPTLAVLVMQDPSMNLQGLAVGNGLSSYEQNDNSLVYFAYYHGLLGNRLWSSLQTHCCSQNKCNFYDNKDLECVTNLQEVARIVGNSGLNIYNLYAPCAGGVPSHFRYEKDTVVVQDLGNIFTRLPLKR
T1 sequence (P10619 327-480 limits assumed): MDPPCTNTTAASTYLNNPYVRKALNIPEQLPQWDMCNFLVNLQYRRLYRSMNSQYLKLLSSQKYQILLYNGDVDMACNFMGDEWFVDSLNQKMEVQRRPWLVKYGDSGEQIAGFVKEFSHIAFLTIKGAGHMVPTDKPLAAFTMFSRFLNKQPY
The assay can be described thus: Cathepsin A inhibitory activity. The format is biochemical. To be noted: pharmacological test "Cathepsin A inhibitory activity"; IC50 given as class A/B/C; read-out: Activity (2): Cathepsin A inhibitory activity, IC50 class. The method in brief:
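Human cathepsin A (res. 29-480, C-His10) pre-activated with cathepsin L (MES pH 6.0, DTT, 15 min, 37 °C; quenched with 10 μM E-64). Enzyme (833 ng/ml) preincubated 15 min RT with compound in MES pH 5.5/DTT, then 2 μM Bodipy FL-bradykinin for 15 min RT. Capillary electrophoresis product/substrate peak areas; IC50 from % inhibition.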
Regarding `O=C(O)CC(NC(=O)c1cc(O)n(-c2ccccc2F)n1)c1ccc(OC(F)(F)F)cc1` (stereo not drawn) [Example 239], the IC50 is 100 to 1000 nM.
Take `N#Cc1cccc([C@H](CC(=O)O)NC(=O)c2cc(O)n(-c3cccc(Cl)c3)n2)c1` [Example 252]: the IC50 fell in the range of 1000 to 30000 nM.
On the same count and under the same terms, with `O=C(O)CC(NC(=O)c1cc(O)n(-c2ccccc2Cl)n1)c1ccc(Cl)c(Cl)c1` (stereo not drawn) [Example 227] the figure was 100 to 1000 nM.
For `O=C(O)CC(NC(=O)c1cc(O)n(-c2ccccc2Cl)n1)c1ccc(-c2cccc(F)c2)cc1` (stereo not drawn) [Example 219], the IC50 was 100 to 1000 nM.
Same read-out and setting: with `COc1ccc(C(CC(=O)O)NC(=O)c2cc(O)n(-c3ccccc3F)n2)c(Cl)c1` (stereo not drawn) [Example 235] the figure was 100 to 1000 nM; with `O=C(O)C[C@H](NC(=O)c1cc(O)n(-c2ccccc2F)n1)c1ccc(F)cc1` [Example 236], 100 to 1000 nM; with `O=C(O)CC(NC(=O)c1cc(O)n(-c2ccccc2F)n1)c1cccc(Oc2ccc(Cl)cc2)c1` (stereo not drawn) [Example 246], 100 to 1000 nM.

The assay is the same for the next values; noted with them: read-out: Activity (2): Cathepsin A inhibitory activity (IC50 class).
On to `Cc1cccc([C@H](CC(=O)O)NC(=O)c2cc(OC[C@@H](O)C(C)(C)C)n(-c3ccccc3F)n2)c1` [Example 792, (S)-3-{[1-(2-Fluoro-phenyl)-5-((S)-2-hydroxy-3,3-dimethyl-butoxy)-1H-pyrazole-3-carbonyl]-amino}-3-m-tolyl-propionic acid], for which the IC50 was less than 100 nM.
Same read-out and setting: as for `COc1ccc(C(F)(F)F)cc1C(CC(=O)O)NC(=O)c1cc(O)n(-c2ccccc2Cl)n1` (stereo not drawn) [Example 560, 3-{[1-(2-Chloro-phenyl)-5-hydroxy-1H-pyrazole-3-carbonyl]-amino}-3-(2-methoxy-5-trifluoromethyl-phenyl)-propionic acid], the figure is 1000 to 30000 nM.
As to `CC(C)(C)[C@@](C)(O)COc1cc(C(=O)N[C@@H](CC(=O)O)c2cccc(Cl)c2)nn1-c1ccccc1F` [Example 774, (S)-3-(3-Chloro-phenyl)-3-{[1-(2-fluoro-phenyl)-5-((R)-2-hydroxy-2,3,3-trimethyl-butoxy)-1H-pyrazole-3-carbonyl]-amino}-propionic acid], the concentration for half-maximal inhibition (IC50) is less than 100 nM.
Still for that read-out and setting: as for `Cc1ccccc1[C@H](CC(=O)O)NC(=O)c1cc(OC(=O)N(C)c2ccccc2)n(-c2ccccc2F)n1` [Example 620], the figure is less than 100 nM.
In the case of `Cc1ccc([C@H](CC(=O)O)NC(=O)c2cc(OCC(C)(O)C(C)C)n(-c3ccccc3F)n2)cc1` (stereo partly drawn) [Example 787, (S)-3-{[1-(2-Fluoro-phenyl)-5-(2-hydroxy-2,3-dimethyl-butoxy)-1H-pyrazole-3-carbonyl]-amino}-3-p-tolyl-propionic acid], the half-inhibitory concentration (IC50) is less than 100 nM.
On the same count and under the same terms, with `CC(C)(C)[C@@H](O)COc1cc(C(=O)N[C@@H](CC(=O)O)c2ccccc2Cl)nn1-c1ccccc1F` [Example 793, (S)-3-(2-Chloro-phenyl)-3-{[1-(2-fluoro-phenyl)-5-((R)-2-hydroxy-3,3-dimethyl-butoxy)-1H-pyrazole-3-carbonyl]-amino}-propionic acid] the figure was less than 100 nM; with `CCOc1cc(C(=O)N[C@@H](CC(=O)O)c2ccccc2C)nn1-c1ccccc1Cl` [Example 727], less than 100 nM; with `O=C(O)CC(NC(=O)c1cc(O)n(C2CCCC2)n1)c1ccc(-c2ccc(F)cc2)cc1` (stereo not drawn) [Example 574], 1000 to 30000 nM.
For `CC(C)C(C)(O)COc1cc(C(=O)N[C@@H](CC(=O)O)c2ccccc2Cl)nn1-c1ccccc1F` (stereo partly drawn) [Example 775, (S)-3-(2-Chloro-phenyl)-3-{[1-(2-fluoro-phenyl)-5-(2-hydroxy-2,3-dimethyl-butoxy)-1H-pyrazole-3-carbonyl]-amino}-propionic acid], the IC50 is less than 100 nM.
On the same count and under the same terms, with `Cc1ccccc1[C@H](CC(=O)O)NC(=O)c1cc(O)n(-c2cccc(S(N)(=O)=O)c2)n1` [Example 601] the figure was 100 to 1000 nM.

The assay is the same for the next values; noted with them: read-out: Activity (2): Cathepsin A inhibitory activity, IC50 class.
As to `Cc1ccc(C)c(-n2nc(C(=O)NC3(CC(=O)O)CCCC3)cc2O)c1` [Example 42], the 50% inhibitory concentration (IC50) lay in the range of 1000 to 30000 nM.
Still for that read-out and setting: as for `CCc1ccc(C(CC(=O)O)NC(=O)c2cc(O)n(-c3ccccc3F)n2)cc1` (stereo not drawn) [Example 134], the figure is 100 to 1000 nM; as for `COc1ccc(C(CC(=O)O)NC(=O)c2cc(O)n(-c3cc(C)ccc3C)n2)cc1F` (stereo not drawn) [Example 54], 1000 to 30000 nM.
The same measure, in the same setting: with `O=C(O)C[C@H](NC(=O)c1cc(O)n(-c2ccccc2Cl)n1)c1c(F)cccc1F` [Example 114] the figure was 100 to 1000 nM; with `O=C(O)CC(NC(=O)c1cc(O)n(-c2ccccc2F)n1)c1ccc(-c2ccc(F)cc2)cc1` (stereo not drawn) [Example 126], less than 100 nM.
Same read-out and setting: as for `CC(C)[C@](C)(O)COc1cc(C(=O)NCC(C(=O)O)c2ccccc2)nn1-c1ccccc1F` (stereo partly drawn) [Example 830, 3-{[1-(2-Fluoro-phenyl)-5-((S)-2-hydroxy-2,3-dimethyl-butoxy)-1H-pyrazole-3-carbonyl]-amino}-2-phenyl-propionic acid], the figure is 100 to 1000 nM; as for `O=C(O)CC(NC(=O)c1cc(O)n(-c2ccc(F)c(Cl)c2)n1)c1ccc(F)cc1` (stereo not drawn) [Example 72], 1000 to 30000 nM.
For the molecule `CC(C)(C)[C@@](C)(O)COc1cc(C(=O)N[C@@H](CC(=O)O)c2ccccc2F)nn1-c1ccccc1F` [Example 854, (S)-3-(2-Fluoro-phenyl)-3-{[1-(2-fluoro-phenyl)-5-((R)-2-hydroxy-2,3,3-trimethyl-butoxy)-1H-pyrazole-3-carbonyl]-amino}-propionic acid], the IC50 fell in the range of 100 to 1000 nM.
Still for that read-out and setting: with `O=C(O)CC(NC(=O)c1cc(O)n(-c2ccc(F)cc2)n1)c1ccc(-c2ccc(F)cc2)cc1` (stereo not drawn) [Example 371] the figure was 100 to 1000 nM; with `O=C(O)CC(NC(=O)c1cc(O)n(-c2ccc(F)cc2)n1)c1cccc(Cl)c1` (stereo not drawn) [Example 338], 100 to 1000 nM.
On the same count and under the same terms, as for `Cc1ccc(C)c(-n2nc(C(=O)NC(CC(=O)O)c3cccnc3)cc2O)c1` (stereo not drawn) [Example 35], the figure is 1000 to 30000 nM.
Still for that read-out and setting: as for `Cc1ccccc1[C@H](CC(=O)O)NC(=O)c1cc(OC[C@@](C)(O)C(C)C)n(-c2ccccc2F)n1` [Example 870, (S)-3-{[1-(2-Fluoro-phenyl)-5-((S)-2-hydroxy-2,3-dimethyl-butoxy)-1H-pyrazole-3-carbonyl]-amino}-3-o-tolyl-propionic acid], the figure is less than 100 nM; as for `Cc1cccc([C@H](CC(=O)O)NC(=O)c2cc(O)n(-c3ccccc3F)n2)c1` [Example 404], 100 to 1000 nM.

Still in this assay, the particulars now being: recombinant human cathepsin A 833 ng/ml, Bodipy FL-labeled bradykinin 2 μM, pH 5.5; read-out: CATH-A IC50.
As for `COc1ccc(C(F)(F)F)cc1C(CC(=O)O)NC(=O)c1cc(O)n(-c2ccccc2Cl)n1` (stereo not drawn) [Example 560, 3-{[1-(2-Chloro-phenyl)-5-hydroxy-1H-pyrazole-3-carbonyl]-amino}-3-(2-methoxy-5-trifluoromethyl-phenyl)-propionic acid], the concentration for half-maximal inhibition (IC50) was determined as 7620 nM.
Take `O=C(O)C[C@H](NC(=O)c1cc(O)n(-c2cccc(Cl)c2)n1)c1ccccc1Cl` [Example 514, (S)-3-(2-Chloro-phenyl)-3-{[1-(3-chloro-phenyl)-5-hydroxy-1H-pyrazole-3-carbonyl]-amino}-propionic acid]: the half-inhibitory concentration (IC50) came out at 304 nM.
For `Cc1ccccc1[C@H](CC(=O)O)NC(=O)c1cc(OC[C@@](C)(O)C(C)C)n(-c2ccccc2F)n1` [Example 870, (S)-3-{[1-(2-Fluoro-phenyl)-5-((S)-2-hydroxy-2,3-dimethyl-butoxy)-1H-pyrazole-3-carbonyl]-amino}-3-o-tolyl-propionic acid], the 50% inhibitory concentration (IC50) was 76 nM.

The same assay, now with this note: recombinant human cathepsin A; read-out: Activity (2): Cathepsin A inhibitory activity, IC50 class.
Consider `COc1cc(C(=O)N[C@@H](CC(=O)O)c2ccccc2C)nn1-c1ccccc1` [Example 534, (S)-3-[(5-Methoxy-1-phenyl-1H-pyrazole-3-carbonyl)-amino]-3-o-tolyl-propionic acid], for which the half-maximal inhibitory concentration (IC50) is less than 100 nM.
Same read-out and setting: with `COc1cccc([C@H](CC(=O)O)NC(=O)c2cc(O)n(-c3cccc(F)c3)n2)c1OC` [Example 431] the figure was 100 to 1000 nM.
Same read-out and setting: with `O=C(O)C[C@H](NC(=O)c1cc(O)n(-c2cccc(Cl)c2)n1)c1ccccc1Cl` [Example 514, (S)-3-(2-Chloro-phenyl)-3-{[1-(3-chloro-phenyl)-5-hydroxy-1H-pyrazole-3-carbonyl]-amino}-propionic acid] the figure was 100 to 1000 nM.
On the same count and under the same terms, as for `O=C(O)CC(NC(=O)c1cc(O)n(-c2cccc(F)c2)n1)c1cc(F)ccc1F` (stereo not drawn) [Example 485], the figure is 100 to 1000 nM; as for `O=C(O)CC(NC(=O)c1cc(O)n(-c2ccc(F)cc2)n1)c1cccc2c1OC(F)(F)O2` (stereo not drawn) [Example 491], 100 to 1000 nM; as for `O=C(O)CC(NC(=O)c1cc(O)n(-c2ccc(F)cc2)n1)c1ccc(Oc2ccccc2)cc1` (stereo not drawn) [Example 437], 100 to 1000 nM.

The values above are taken from patent US8664257B2, “Oxygen-substituted 3-heteroaroylamino-propionic acid derivatives and their use as pharmaceuticals” (Sanofi, priority 2010, dated 2014).
